One may read the MIC as the lowest concentration found to suppress growth. Read a high MIC as a less susceptible organism.

Each structure is given as a SMILES string. Converted amounts (≈) assume the structure as drawn. Some results are limits rather than exact numbers.

Among the test systems are Escherichia coli JM109; Bacillus cereus AS1.126; Escherichia coli AS1.349.
Test in all cases: ≥ marks a high value that may be exact or a test limit, other limits are often not marked, values filed in µg/mL are converted to µM
The subject of test [1] is Staphylococcus aureus SA113.
For test [2], the system named is Pseudomonas fluorescens NCIMB 9046.
Test [3] deals with Staphylococcus aureus RN4220.
Test [4] deals with Escherichia coli NCIMB 11843.
In test [5] the test system is Cronobacter sakazakii DPC 6440.
In test [6] the test system is Cronobacter sakazakii DSM 4485.
For test [7], the system named is Staphylococcus aureus Newman.
Test [8] concerns Staphylococcus aureus RF122.
Test [9] relates to Cronobacter muytjensii ATCC 51329.
For test [10], the system named is Staphylococcus aureus NCTC 8325-4.
The test system of test [11] is Salmonella enterica subsp. enterica serovar Typhimurium LT2.
Test [12] concerns Cronobacter sakazakii ATCC BAA-894.
Test [13] relates to Klebsiella pneumoniae NCIMB 13218.
The subject of test [14] is Klebsiella pneumoniae ATCC 10031.
The subject of test [15] is Pseudomonas aeruginosa ATCC 13388.
The subject of test [16] is Salmonella enterica subsp. enterica serovar Typhimurium ATCC 14028.
Test [17] concerns Staphylococcus aureus ATCC 6538.
The subject of test [18] is Escherichia coli ATCC 11219.
Test [19] has as its system Escherichia coli KCTC 1682.
Test [20] has as its system Salmonella typhimurium KCTC 1926.
Test [21] concerns Bacillus subtilis KCTC 3068.
For test [22], the system named is Staphylococcus epidermidis KCTC 1917.
The subject of test [23] is Staphylococcus aureus KCTC 1621.
Test [24] has as its system Pseudomonas aeruginosa KCTC 1637.
The subject of test [25] is Pseudomonas aeruginosa ATCC 27853.
Test [26] relates to Klebsiella aerogenes CGMCC 1.876.
For test [27], the system named is Enterobacter cloacae CGMCC 1.58.
For test [28], the system named is Staphylococcus aureus AS1.72.
Test [29] relates to Enterococcus faecium CGMCC 1.2334.
The test system of test [30] is Enterococcus faecalis CGMCC 1.595.
Test [31] concerns Klebsiella pneumoniae subsp. pneumoniae CGMCC 1.176.
Test [32] relates to Pseudomonas aeruginosa CGMCC 1.860.
Test [33] concerns Lactococcus lactis AS1.1690.
The test system of test [34] is Enterococcus faecalis ATCC 29212.
Test [35] relates to Escherichia coli ATCC 25922.
The test system of test [36] is Candida albicans ATCC 14053.
Test [37] concerns Staphylococcus aureus ATCC 29213.
Test [38] concerns Klebsiella pneumoniae ATCC 13883.

With `CC[C@H](C)[C@H](N)C(=O)N[C@@H](CCCCN)C(=O)N[C@@H](Cc1cnc[nH]1)C(=O)N[C@@H](CCC(N)=O)C(=O)NCC(=O)N[C@@H](CC(C)C)C(=O)N1CCC[C@H]1C(=O)N[C@@H](CCC(N)=O)C(=O)N[C@@H](CCC(=O)O)C(=O)N[C@@H](CC(=O)O)C(=O)O` [IKHQGLPQED], the MIC was no less than 625 µM in test [1]; no less than 1250 µM in test [2]; no less than 1250 µM in [3]; no less than 1250 µM in [4]; no less than 625 µM in test [5]; no less than 625 µM in test [6]. The minimal inhibitory concentration (MIC) in [7] was no less than 1250 µM; in test [8] it was no less than 1250 µM; in [9], no less than 2500 µM; in test [10], no less than 1250 µM; in test [11] it was no less than 2500 µM; in [12], no less than 625 µM. This molecule also had an MIC in [13] of no less than 1250 µM.
Regarding `CC[C@H](C)[C@H](NC(=O)CNC(C)=O)C(=O)N[C@@H](CCCN=C(N)N)C(=O)N[C@@H](CCCN=C(N)N)C(=O)N[C@H](C(=O)N[C@@H](CC(C)C)C(=O)N[C@@H](CCCCN)C(=O)N[C@@H](Cc1ccc(O)cc1)C(=O)NCC(=O)N[C@@H](CCCCN)C(=O)N[C@@H](CCCN=C(N)N)C(=O)N[C@@H](CO)C(N)=O)[C@@H](C)CC` [GIRRILKYGKRS], the MIC in test [14] was 5 µM (≈ 7.44 µg/mL); in test [15], 20 µM (≈ 29.8 µg/mL); in test [16] it was 20 µM (≈ 29.8 µg/mL); in [17] it was 2.2 µM (≈ 3.27 µg/mL); in test [18], 5 µM (≈ 7.44 µg/mL).
As for `CC[C@H](C)[C@H](N)C(=O)N[C@@H](CC(C)C)C(=O)N1CCC[C@H]1C(=O)N[C@@H](Cc1c[nH]c2ccccc12)C(=O)N[C@@H](CCCCN)C(=O)N[C@@H](Cc1c[nH]c2ccccc12)C(=O)N[C@@H](CCCCN)C(=O)N[C@@H](Cc1c[nH]c2ccccc12)C(=O)N[C@@H](Cc1c[nH]c2ccccc12)C(=O)N1CCC[C@H]1C(=O)N[C@@H](Cc1c[nH]c2ccccc12)C(=O)N[C@@H](CCCN=C(N)N)C(=O)N[C@@H](CCCN=C(N)N)C(N)=O` [ILPWKWKWWPWRR], the MIC in test [19] was determined as 5.16 µM (≈ 10 µg/mL); in test [20], 5.16 µM (≈ 10 µg/mL); in [21], 2.58 µM (≈ 5 µg/mL); in test [22], 5.16 µM (≈ 10 µg/mL); in [23] it was 2.58 µM (≈ 5 µg/mL); in test [24] it was 10.3 µM (≈ 20 µg/mL). Besides, in the test on Escherichia coli JM109, the MIC was 1 µM (≈ 1.94 µg/mL).
In the case of `CC(C)C[C@H](NC(=O)[C@@H](N)C(C)C)C(=O)N[C@@H](CC(N)=O)C(=O)N[C@@H](CCC(=O)O)C(=O)N[C@@H](CC(N)=O)C(=O)N[C@@H](C)C(=O)N[C@@H](C)C(=O)N[C@@H](CCCN=C(N)N)C(=O)O` [VLNENAAR], the MIC in [1] was no less than 1250 µM; in test [2] it was no less than 1250 µM; in test [3], no less than 1250 µM; in [4], no less than 2500 µM; in test [5] it was no less than 1250 µM; in test [25], 32 µM (≈ 28.4 µg/mL). The MIC in [6] was no less than 625 µM; in [7], no less than 1250 µM; in test [8] it was no less than 1250 µM; in test [9] it was no less than 1250 µM; in test [10], no less than 625 µM; in test [11], no less than 2500 µM. For the same molecule, the MIC in [12] is no less than 1250 µM; in test [13], no less than 2500 µM.
Take `NC(N)=NCCC[C@H](NC(=O)[C@H](CCCN=C(N)N)NC(=O)[C@H](Cc1c[nH]c2ccccc12)NC(=O)[C@H](Cc1ccccc1)NC(=O)[C@H](CCCN=C(N)N)NC(=O)[C@H](CCCN=C(N)N)NC(=O)[C@@H](N)Cc1c[nH]c2ccccc12)C(=O)O` [WRRFWRR]: the MIC is no less than 100 µM in test [26]; 1.56 µM (≈ 1.81 µg/mL) against Bacillus cereus AS1.126; no less than 100 µM in [27]; no less than 50 µM in [28]; 25 µM (≈ 29.1 µg/mL) with Escherichia coli AS1.349; 25 µM (≈ 29.1 µg/mL) in test [29]. Further, the MIC in [30] is 25 µM (≈ 29.1 µg/mL); in test [31], no less than 100 µM; in test [32], 12.5 µM (≈ 14.5 µg/mL); in test [33], 12.5 µM (≈ 14.5 µg/mL).
Consider `CC[C@H](C)[C@H](NC(=O)CN)C(=O)N[C@@H](CCCCN)C(=O)N[C@@H](CC(=O)O)C(=O)N[C@H](C(=O)N[C@@H](CC(C)C)C(=O)N[C@@H](CCCCN)C(=O)N[C@@H](Cc1ccc(O)cc1)C(=O)NCC(=O)N[C@@H](CCCCN)C(=O)N1CCC[C@H]1C(=O)N[C@@H](CO)C(N)=O)[C@@H](C)CC` [GIKDILKYGKPS], for which the minimum inhibitory concentration (MIC) in test [14] worked out at 10 µM (≈ 13.2 µg/mL); in test [15] it was 30 µM (≈ 39.5 µg/mL); in test [16], 5 µM (≈ 6.59 µg/mL); in test [17], 15 µM (≈ 19.8 µg/mL); in [18], 10 µM (≈ 13.2 µg/mL).
As for `CC[C@H](C)[C@H](NC(=O)[C@H](CCCCN)NC(=O)[C@H](CO)NC(=O)[C@H](C)NC(=O)[C@H](Cc1c[nH]c2ccccc12)NC(=O)CN)C(=O)NCC(=O)N[C@@H](CCC(N)=O)C(=O)N[C@H](C(=O)N[C@@H](CC(C)C)C(=O)NCC(=O)N[C@@H](CCCCN)C(=O)N[C@H](C(=O)N[C@@H](C)C(=O)N[C@@H](CCCCN)C(=O)N[C@H](C(=O)NCC(=O)N[C@@H](CC(C)C)C(=O)N[C@@H](CCCCN)C(=O)N[C@@H](CCC(=O)O)C(=O)N[C@@H](CC(C)C)C(=O)N[C@H](C(=O)N[C@@H](CCC(N)=O)C(=O)N1CCC[C@H]1C(=O)N[C@@H](CCCCN)C(N)=O)[C@@H](C)CC)C(C)C)[C@@H](C)CC)[C@@H](C)O` [GWASKIGQTLGKIAKVGLKELIQPK], the MIC in test [34] is 133 µM (≈ 353 µg/mL); in test [25] it was 66.4 µM (≈ 177 µg/mL); in test [35] it was 8.36 µM (≈ 22.3 µg/mL); in test [36], no less than 133 µM; in test [37] it was 133 µM (≈ 353 µg/mL); in [38] it was no less than 33 µM.
As for `CC[C@H](C)[C@H](NC(=O)CN)C(=O)N[C@@H](C)C(=O)N[C@@H](CC(=O)O)C(=O)N[C@H](C(=O)N[C@@H](CC(C)C)C(=O)N[C@@H](CCCCN)C(=O)N[C@@H](Cc1ccc(O)cc1)C(=O)NCC(=O)N[C@@H](CCCCN)C(=O)N1CCC[C@H]1C(=O)N[C@@H](CO)C(N)=O)[C@@H](C)CC` [GIADILKYGKPS], the minimum inhibitory concentration (MIC) in test [14] is 30 µM (≈ 37.8 µg/mL); in [15], 15 µM (≈ 18.9 µg/mL); in [16], 10 µM (≈ 12.6 µg/mL); in [17], 20 µM (≈ 25.2 µg/mL); in test [18] it was no less than 50 µM.

Values taken from DBAASP.
